The test has as its target Metallo-beta-lactamase type 2 (Klebsiella pneumoniae, UniProt C7C422). Put plainly: Binding affinity to bacterial NDM-1 (unknown origin) assessed as inhibition constant.

Structures are written as SMILES.

Metallo-beta-lactamase type 2, sequence (C7C422 whole entry): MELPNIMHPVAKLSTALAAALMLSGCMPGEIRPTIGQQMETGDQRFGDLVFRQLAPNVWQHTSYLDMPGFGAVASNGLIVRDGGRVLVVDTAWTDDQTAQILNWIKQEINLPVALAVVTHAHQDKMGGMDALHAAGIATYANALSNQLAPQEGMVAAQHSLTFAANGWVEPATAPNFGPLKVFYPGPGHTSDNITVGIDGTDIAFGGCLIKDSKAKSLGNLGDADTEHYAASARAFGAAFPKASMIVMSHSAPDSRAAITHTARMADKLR

The Ki is the equilibrium dissociation constant of an inhibitor or competing ligand from its target. As for `CN1CCN(C(=S)N/N=C/c2ccccc2O)CC1`, the Ki worked out at 0.44 nM.

The values are drawn from BindingDB's records for doi:10.1039/d3md00036b (n/a, 2023).
